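Interpolation was linear, between the two tested concentrations surrounding the appropriate level; five concentrations were tested over 48 hours in 96-well plates. TGI: total growth inhibition.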

Among the test systems are A549 NSCLC; BT-549 breast; CAKI-1 renal; HT29 colon; IGROV1 ovarian; KM12 colon; MALME-3M melanoma; MDA-MB-435; MOLT-4 leukemia; NCI-H522 lung; OVCAR-3 ovarian; OVCAR-8 ovarian; SF-268 CNS; SK-MEL-28 melanoma; SK-OV-3 ovarian; SNB-19 CNS; U251 CNS; UO-31 renal; TK-10 renal.
Assay in all cases: NCI anticancer screen, dose series, 48 h

For `c1ccc(C2C3=C(CCCC3)Nc3nc4cc5ccccc5cc4n32)cc1` (centres undefined), the TGI in the test with A549 NSCLC, with BT-549 breast, in the test on CAKI-1 renal, with HT29 colon, with IGROV1 ovarian and with KM12 colon was more than 100 µM in each case. Besides, the TGI with MALME-3M melanoma, in the test with MDA-MB-435, in the test on MOLT-4 leukemia, with NCI-H522 lung, in the test with OVCAR-3 ovarian and in the test on OVCAR-8 ovarian was more than 100 µM throughout. Also, the TGI with SF-268 CNS, in the test on SK-MEL-28 melanoma, in the test with SK-OV-3 ovarian, in the test on SNB-19 CNS, with U251 CNS and with UO-31 renal was more than 100 µM in each case.

Turning to `CCOC(=O)c1nc2ccccc2nc1NCc1ccc(OC)cc1`, the TGI in the test on A549 NSCLC, with BT-549 breast, with CAKI-1 renal, in the test with HT29 colon, in the test with IGROV1 ovarian and in the test with KM12 colon was more than 100 µM throughout. Also, the TGI in the test on MALME-3M melanoma, in the test with MDA-MB-435, in the test on MOLT-4 leukemia, with NCI-H522 lung, in the test on OVCAR-3 ovarian and in the test on OVCAR-8 ovarian was more than 100 µM each time. The TGI with SF-268 CNS, with SK-MEL-28 melanoma, with SK-OV-3 ovarian, in the test with TK-10 renal, in the test with U251 CNS and in the test with UO-31 renal was more than 100 µM throughout.

For the compound `O=C1c2cccnc2S(=O)N1Cc1ccccc1` (centres undefined), the TGI with A549 NSCLC, in the test on BT-549 breast, in the test with CAKI-1 renal, with HT29 colon, in the test with IGROV1 ovarian and with KM12 colon was more than 100 µM each time. Further, the TGI with MALME-3M melanoma, in the test with MDA-MB-435, in the test with MOLT-4 leukemia, in the test with NCI-H522 lung, in the test on OVCAR-8 ovarian and in the test on SF-268 CNS was more than 100 µM throughout. In addition, the TGI in the test on SK-MEL-28 melanoma, in the test on SK-OV-3 ovarian, with SNB-19 CNS, in the test on TK-10 renal, with U251 CNS and in the test with UO-31 renal was more than 100 µM each time.

As for `O=CN1CCN(C(=O)c2cc(Cl)cc(Cl)c2)C1=S`, the TGI amounted to 39.8 µM in the test on A549 NSCLC; 31.3 µM with BT-549 breast; 26 µM in the test on CAKI-1 renal; 54.5 µM in the test on HT29 colon; 34.7 µM in the test on IGROV1 ovarian; 29.8 µM with KM12 colon. Moreover, the TGI is 20.7 µM with MALME-3M melanoma; 28.1 µM with MDA-MB-435; 42.7 µM in the test with MOLT-4 leukemia; 15.4 µM in the test on NCI-H522 lung; 27.9 µM in the test with OVCAR-3 ovarian; 33.6 µM with OVCAR-8 ovarian. Besides, the TGI with SF-268 CNS came out at 30.6 µM; in the test on SK-MEL-28 melanoma it was 39.2 µM; in the test with SK-OV-3 ovarian, 32.4 µM; in the test on SNB-19 CNS, 35 µM; in the test on TK-10 renal, 28.7 µM; in the test with U251 CNS, 36 µM.

`COc1ccc(-c2c(C#N)c(-c3ccc(C)cc3)n(NS(=O)(=O)c3ccccc3)c(=O)c2C#N)cc1`: the TGI in the test with A549 NSCLC, in the test with BT-549 breast, with CAKI-1 renal, with HT29 colon, with IGROV1 ovarian and in the test with KM12 colon was more than 100 µM each time. Further, the TGI with MALME-3M melanoma is more than 100 µM; in the test on MDA-MB-435, more than 100 µM; in the test on MOLT-4 leukemia it was 60.4 µM; with NCI-H522 lung it was more than 100 µM; in the test with OVCAR-3 ovarian, more than 100 µM; with OVCAR-8 ovarian, more than 100 µM. In addition, the TGI with SF-268 CNS, in the test on SK-MEL-28 melanoma, in the test on SK-OV-3 ovarian, in the test with SNB-19 CNS, in the test with TK-10 renal and with U251 CNS was more than 100 µM throughout.

Regarding `COC(=O)C[C@@H]1C(C)(C)[C@@H]2O[C@@]34C[C@@H]2C(=O)[C@]1(C)[C@H]3CC[C@@]1(C)[C@H](c2ccoc2)OC(=O)C[C@]14O`, the TGI in the test on A549 NSCLC, with BT-549 breast, in the test with CAKI-1 renal, in the test on HT29 colon, with IGROV1 ovarian and with KM12 colon was more than 100 µM in each case. Also, the TGI in the test with MALME-3M melanoma, in the test on MDA-MB-435, in the test on MOLT-4 leukemia, with NCI-H522 lung, in the test with OVCAR-3 ovarian and in the test with OVCAR-8 ovarian was more than 100 µM in each case. Further, the TGI in the test on SF-268 CNS, with SK-MEL-28 melanoma, in the test with SK-OV-3 ovarian, in the test with SNB-19 CNS, in the test on TK-10 renal and with U251 CNS was more than 100 µM throughout.

As to `COC(=O)C1=NN2c3ccccc3C(=O)OCCC2(C)C1` (centres undefined), the TGI in the test on A549 NSCLC, in the test with BT-549 breast, in the test on CAKI-1 renal, in the test with HT29 colon, in the test with IGROV1 ovarian and with KM12 colon was more than 100 µM throughout. Moreover, the TGI in the test with MALME-3M melanoma, with MDA-MB-435, with MOLT-4 leukemia, in the test with NCI-H522 lung, with OVCAR-3 ovarian and with OVCAR-8 ovarian was more than 100 µM each time. Further, the TGI with SF-268 CNS, with SK-MEL-28 melanoma, in the test with SK-OV-3 ovarian, in the test on TK-10 renal, in the test with U251 CNS and in the test with UO-31 renal was more than 100 µM each time.

On to `O=S(=O)(N=S(c1ccc(Cl)cc1)c1ccc(Cl)cc1)c1ccccc1`, for which the TGI in the test with A549 NSCLC, in the test on BT-549 breast, with CAKI-1 renal, in the test on HT29 colon, in the test on IGROV1 ovarian and with KM12 colon was more than 100 µM throughout. Moreover, the TGI in the test on MALME-3M melanoma, in the test with MDA-MB-435, with MOLT-4 leukemia, in the test on NCI-H522 lung, in the test with OVCAR-8 ovarian and with SF-268 CNS was more than 100 µM each time. Moreover, the TGI with SK-MEL-28 melanoma, in the test on SK-OV-3 ovarian, in the test on SNB-19 CNS, with TK-10 renal, with U251 CNS and with UO-31 renal was more than 100 µM in each case.

The record behind these values is PubChem BioAssay (NCI).
